# Laboratory results published in patent publication US7402557B2, “Combined treatment with keratinocyte growth factor and epidermal growth factor inhibitor” (priority 2000, dated 2008).
# Columns and labels:
# p27^kip1/waf1 [1] = details: cited from earlier work
# [2] = tested on: normal keratinocytes and EGFR over-expressing tumor cells; details: cited from earlier work
# [3] = tested on: hyper-phosphorylated retinoblastoma protein (ppRB); details: cited from earlier work
# [4] = tested on: normal human neonatal epidermal keratinoctyes, NHEK; test: Flow cytometric measurement of cell cycle arrest (BrdU incorporation / propidium iodide); assay type: cell-based; details: for % G1 / % G2 / % S: 24 hr, NHEK; for effect on cell cycle phase distribution (in words): keratinocytes treated for 24 hours
# Description: (§1) The protective effect of KGF on keratinocytes was measured in two types of assays, the first to determine its protective effect on cell cycle phase distribution against a small molecule EGFR inhibitor, and the second to determine its protective effect against ppRB depletion and p27^kip1/waf1 upregulation caused by the EGFR inhibitor. The effect of KGF on cell cycle phase distribution was measured by bivariate analysis of bromodeoxyuridine incorporation and propidium iodide uptake by […] using flow cytometry. The protective effect of KGF against ppRB depletion and p27^kip1/waf1 upregulation was measured by immunoblotting of lysates from treated and control […] cells with antibodies specific for RB and p27^kip1/waf1, respectively. The methods are described in detail below.
# (§2) All experiments were carried out with normal human neonatal epidermal keratinoctyes, NHEK (Clonetics, San Diego, Calif.). Cells were maintained in Keratinocyte Growth Medium, KGM-2 (Clonetics). Human recombinant KGF expressed in E. coli as a 19 kDa protein was purchased from Sigma Chemical Co. (St. Louis, Mo.).
# NHEK cells were seeded in 60-mm dishes in KGM-2. When the cells were semiconfluent, the medium was replaced with fresh medium containing the test agents: vehicle (0.125% DMSO); vehicle+20 ng/ml KGF; vehicle+0.3 μM CP-358, 774-01+/−20 ng/ml KGF; or vehicle+1 μM CP-358, 774-01+/−20 ng/ml KGF. The cells were incubated at 37° C. in a 5% CO2, humidified atmosphere. After 24 hr, bromodeoxyuridine (BrdU) was added to the medium at a final concentration of 10 μM for 30 min. The cells were then harvested using 0.25% trypsin/1 mM EDTA and counted using a Coulter counter. Aliquots of 2×10^6 cells were collected by centrifugation at 220×g for 5 min, washed in 2 ml phosphate buffered saline (PBS) containing 2.5% fetal calf serum, resuspended in 0.2 ml PBS, and fixed by the addition of 5 ml 70% ethanol at −20° C. After a 30 min incubation on ice, the cells were collected by centrifugation at 500×g for 5 min and resuspended in 25 μl PBS. One ml of 0.2 mg/ml pepsin in 2 N HCI was added and the cells were incubated for 30 min at rm temp. Cells were collected by centrifugation at 1500×g for 5 min and washed with 1 ml 0.1 M sodium borate, pH 8.5. Cells were pelleted at 1500×g for 5 min, resuspended in 1 ml of fluorescein isothiocyanate (FITC)-conjugated anti-BrdU (Becton Dickinson, San Jose, Calif.) diluted fifty-fold in PBS containing 0.5% Tween 20 and 1% bovine serum albumin, and incubated at ambient temperature in the dark for 30 min. After a final wash with PBS with 0.5% Tween 20 and 1% BSA, the cells were resuspended in PBS containing 10 μg/ml propidium iodide and 10 μg/ml RNase, filtered through a 35 µm mesh and analyzed on a FACSCalibur flow cytometer (Becton Dickinson) equipped with an argon laser with an emission wavelength of 488 nm. FITC fluorescence data was acquired at 515-545 nm, and propidium iodide fluorescence data was acquired at […]. A minimum of 20,000 cells was analyzed per sample. Data was analyzed using CellQuest software (Becton-Dickinson) and the percent of cells in each phase (G1, S, G2) of the cell cycle was calculated.
# [5] = tested on: hyperphosphorylated retinoblastoma protein (ppRB); test: Immunoblot of hyperphosphorylated RB (ppRB) in NHEK lysates; assay type: cell-based, human; details: 24 hr
# Description: as §1, §2
# (§3) NHEK cells were seeded in 6-well plates and grown until semi-confluent in KGM-2. […] Total protein concentration of the lysates was determined using the BCA protein assay (Pierce Chemicals, Rockford, Ill.). […]
# p27^kip1/waf1 [6] = test: Immunoblot of p27^kip1/waf1 protein level in NHEK lysates; assay type: cell-based, human; details: 24 hr
# Description: as §1, §2, §3
# FGFR1iiib receptor = details: cited from earlier work
molecule,measurement,setting,value
"C#Cc1cccc(Nc2ncnc3cc(OCCOC)c(OCCOC)cc23)c1 [CP-358,774, [6,7-bis(2-methoxy-ethoxy)-quinazolin-4-yl]-(3-ethynylphenyl)amine]",effect on cyclin-dependent kinase inhibitor p27^kip1/waf1,p27^kip1/waf1 [1],accumulation
same,cell cycle arrest (accumulation of cells in G1 phase),[2],causes cell cycle arrest
same,effect on hyper-phosphorylated retinoblastoma protein (ppRB),[3],causes depletion
C#Cc1cccc(Nc2ncnc3cc(OCCOC)c(OCCOC)cc23)c1.Cl [Compound A],% G1,[4]; 0.3 μM Compound A,75%
same,% G2,[4]; 0.3 μM Compound A,11%
same,% S,[4]; 0.3 μM Compound A,13%
same,% G1,[4]; 1 μM Compound A,85%
same,% G2,[4]; 1 μM Compound A,10%
same,% S,[4]; 1 μM Compound A,6.0%
same,effect on cell cycle phase distribution (in words),[4],concentration dependent accumulation of cells in the G1 phase of the cell cycle and a corresponding decrease in the S-phase fraction
same,ppRB signal on RB immunoblot,[5]; 0.3 μM Compound A,dramatically reduced
same,ppRB band on RB immunoblot,[5]; 1 μM Compound A,completely abolished
same,induction of p27^kip1/waf1 protein levels,p27^kip1/waf1 [6]; 0.3 μM Compound A,3.9 fold
same,induction of p27^kip1/waf1,p27^kip1/waf1 [6]; 1 μM Compound A,5.2 fold
"KGF: Human recombinant KGF expressed in E. coli as a 19 kDa protein, purchased from Sigma Chemical Co. (protein, UniProt P21781 32-194, looked up) Fibroblast growth factor 7: CNDMTPEQMATNVNCSSPERHTRSYDYMEGGDIRVRRLFCRTQWYLRIDKRGKVKGTQEMKNNYNIMEIRTVAVGIVAIKGVESEFYLAMNKEGKLYAKKECNEDCNFKELILENHYNTYASAKWTHNGGEMFVALNQKGIPVRGKKTKKEQKTAHFLPMAIT",% G1,[4]; 20 ng/ml KGF alone,52%
same,% G2,[4]; 20 ng/ml KGF alone,13%
same,% S,[4]; 20 ng/ml KGF alone,34%
same,effect on cell cycle phase distribution (in words),[4],no significant effect
"KGF-1: keratinocyte growth factor family member, also known as FGF-7 (protein, UniProt P21781 32-194, looked up) Fibroblast growth factor 7: CNDMTPEQMATNVNCSSPERHTRSYDYMEGGDIRVRRLFCRTQWYLRIDKRGKVKGTQEMKNNYNIMEIRTVAVGIVAIKGVESEFYLAMNKEGKLYAKKECNEDCNFKELILENHYNTYASAKWTHNGGEMFVALNQKGIPVRGKKTKKEQKTAHFLPMAIT",binding to FGFR1iiib receptor,FGFR1iiib receptor,high affinity
"KGF-2: keratinocyte growth factor family member, also known as FGF-10 (protein, UniProt O15520 38-208, looked up) Fibroblast growth factor 10: QALGQDMVSPEATNSSSSSFSSPSSAGRHVRSYNHLQGDVRWRKLFSFTKYFLKIEKNGKVSGTKKENCPYSILEITSVEIGVVAVKAINSNYYLAMNKKGKLYGSKEFNNDCKLKERIEENGYNTYASFNWQHNGRQMYVALNGKGAPRRGQKTRRKNTSAHFLPMVVHS",binding to FGFR1iiib receptor,FGFR1iiib receptor,high affinity
